Experiments:
[1] = test system: A-498; assay: Inhibition of cells growth by colorimetric assay (SRB), A-498; format: cell-based
Description: (§1) 2°.—Inhibition of Cells Growth by Colorimetric Assay.
(§2) A colorimetric type of assay, using sulforhodamine B (SRB) reaction has been adapted for a quantitative measurement of cell growth and viability [following the technique described by Philip Skehan, et al. (1990), New colorimetric cytotoxicity assay for anticancer drug screening, J. Natl. Cancer Inst., 82:1107-1112]
(§3) This form of the assay employs 96 well cell culture microplates of 9 mm diameter (Faircloth, 1988; Mosmann, 1983). Most of the cell lines are obtained from American Type Culture Collection (ATCC) derived from different human cancer types.
(§4) Cells are maintained in RPMI 1640 10% FBS, supplemented with 0.1 g/l penicillin and 0.1 g/l streptomycin sulfate and then incubated at 37° C., 5% CO2 and 98% humidity. For the experiments, cells were harvested from subconfluent cultures using trypsin and resuspended in fresh medium before plating.
(§5) Cells are seeded in 96 well microtiter plates, at 5×10^3 cells per well in aliquots of 195 μl medium, and they are allowed to attach to the plate surface by growing in drug free medium for 18 hours. Afterward, samples are added in aliquots of 5 μl in a ranging from 10 to 10^−8 μg/ml, dissolved in DMSO/EtOH/PBS (0.5:0.5:99). After 48 hours exposure, the antitumor effect are measured by the SRB methodology: cells are fixed by adding 50 μl of cold 50% (wt/vol) trichloroacetic acid (TCA) and incubating for 60 minutes at 4° C. Plates are washed with deionized water and dried. One hundred μl of SRB solution (0.4% wt/vol in 1% acetic acid) is added to each microtiter well and incubated for 10 minutes at room temperature. Unbound SRB is removed by washing with 1% acetic acid. Plates are air dried and bound stain is solubilized with Tris buffer. Optical densities are read on a automated spectrophotometric plate reader at a single wavelength of 490 nm.
(§6) The values for mean+/−SD of data from triplicate wells are calculated. Some parameters for cellular responses can be calculated: GI=growth inhibition, TGI=total growth inhibition (cytostatic effect) and LC=cell killing (cytotoxic effect).
(§7) Obtained results may predict the usefulness of a certain drug as a potential cancer treatment. For this technique, compounds which show GI50 values smaller than 10 μg/ml are selected to continue with further studies. GI50's data allow to predict that not only could a drug be cystostatic, but also it could have a potential in terms of tumor reduction.

[2] = test system: Liver
Description: (§9) Toxicity was asssessed by the methods reported in Toxicology in Vitro, 15 (2001) 571-577, J. Luber Narod et al.: “Evaluation of the use of in vitro methodolodies as tools for screening new compounds for potential in vivo toxicity”.

[3] = test system: Skeletal
Description: as §9

[4] = test system: Myelo
Description: as §9

[5] = test system: MCF-7; assay: Inhibition of cells growth by colorimetric assay (SRB), MCF-7; format: cell-based
Description: as §1, §2, §3, §4, §5, §6, §7

[6] = test system: Heart
Description: as §9

[7] = test system: A-549; assay: Inhibition of cells growth by colorimetric assay (SRB), A-549; format: cell-based
How it was run: (§8)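 48 h SRB cytotoxicity assay; compound range 10–10^−8 μg/ml; seeding 5×10^3 cells/well, 18 h pre-attachment; OD 490 nm; GI, TGI, LC from triplicate means ± SD.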

[8] = test system: OVCAR-3; assay: Inhibition of cells growth by colorimetric assay (SRB), OVCAR-3; format: cell-based
Description: as §1, §2, §3, §4, §5
The values for mean+/−SD of data from triplicate wells are calculated. Some parameters for cellular responses can be calculated: GI=growth inhibition, TGI=total growth inhibition (cytostatic effect) and LC=cell killing (cytotoxic effect). […]

[9] = test system: HT-29; assay: Inhibition of cells growth by colorimetric assay (SRB), HT-29; format: cell-based
How it was run: as §8

[10] = test system: SW620; assay: Inhibition of cells growth by colorimetric assay (SRB), SW620; format: cell-based
Description: as §1, §2, §3, §4, §5, §6, §7

[11] = test system: MDA-MB-231; assay: Inhibition of cells growth by colorimetric assay (SRB), MDA-MB-231; format: cell-based
Description: as §1, §2, §3, §4, §5, §6, §7

[12] = test system: DU-145; assay: Inhibition of cells growth by colorimetric assay (SRB), DU-145; format: cell-based
How it was run: as §8

[13] = test system: SK-MEL-28; assay: Inhibition of cells growth by colorimetric assay (SRB), SK-MEL-28; format: cell-based
How it was run: as §8

[14] = test system: Kidney
Description: as §9

In the case of `COc1cc2c(cc1OC(=O)/C=C/c1ccccc1)CCN[C@]21CS[C@@H]2c3c(OC(C)=O)c(C)c4c(c3[C@H](COC1=O)N1C2[C@@H]2N[C@@H](Cc3cc(C)c(OC)c(O)c32)[C@@H]1O)OCO4` (some centres unmarked) [Compound 212], the LC50 ([1]; Homo sapiens, A498, 48 h, read-out: A-498 LC50) was 1140 nM, the GI50 ([1]; Homo sapiens, A498, SRB assay, 48 hours exposure, read-out: A-498 GI50) was 2.28 nM and the “A-498 TGI” value ([1]; SRB assay, 48 hours exposure) was 1.14E-08. The “Toxicity Data Liver” value [2] was 8.68E-08, the “Toxicity Data Skeletal” value [3] was 2.21E-08 and the “Toxicity Data Myelo” value [4] was 8.58E-09. The CC50 ([5]; Homo sapiens, MCF7, 48 h, read-out: MCF LC50) was 342 nM, the GI50 ([5]; Homo sapiens, MCF7, SRB assay, 48 hours exposure, read-out: MCF GI50) was 0.342 nM and the “MCF TGI” value ([5]; SRB assay, 48 hours exposure) was 1.14E-08. For the same compound, the “Toxicity Data Heart” value [6] was 3.20E-08, the GI50 ([7]; Homo sapiens, A549, 48 h, read-out: A-549 GI50) was 9.11 nM and the LC50 (concentration for 50% cell killing) ([7]; Homo sapiens, A549, 48 h, read-out: A-549 LC50, SRB assay, 48 hours exposure) was 114 nM. For the same compound, the “A-549 TGI” value ([7]; SRB assay, 48 hours exposure) was 2.28E-08, the CC50 ([8]; Homo sapiens, OVCAR-3, 48 h, read-out: OVCAR LC50) was 2280 nM and the GI50 ([8]; Homo sapiens, OVCAR-3, SRB assay, 48 hours exposure) was 0.342 nM. For the same compound, the “OVCAR TGI” value ([8]; SRB assay, 48 hours exposure) was 3.42E-09, the GI50 ([9]; Homo sapiens, HT-29, 48 h, SRB assay, 48 hours exposure, read-out: HT-29 GI50) was 2.28 nM and the LC50 (concentration for 50% cell killing) ([9]; Homo sapiens, HT-29, 48 h, read-out: HT-29 LC50, SRB assay, 48 hours exposure) was 11.4 nM. For the same compound, the “HT-29 TGI” value ([9]; SRB assay, 48 hours exposure) was 4.56E-09, the LC50 ([10]; Homo sapiens, SW-620, 48 h, read-out: SW-620 LC50) was 2280 nM and the GI50 ([10]; Homo sapiens, SW-620, SRB assay, 48 hours exposure, read-out: SW-620 GI50) was 0.0228 nM. The “SW-620 TGI” value ([10]; SRB assay, 48 hours exposure) was 1.14E-08, the CC50 ([11]; Homo sapiens, MDA-MB-231, 48 h, read-out: MB-231 LC50) was 114 nM and the GI50 ([11]; Homo sapiens, MDA-MB-231, SRB assay, 48 hours exposure, read-out: MB-231 GI50) was 0.228 nM. The “MB-231 TGI” value ([11]; SRB assay, 48 hours exposure) was 5.69E-09, the GI50 ([12]; Homo sapiens, DU-145, 48 h, SRB assay, 48 hours exposure, read-out: DU-145 GI50) was 0.114 nM and the CC50 ([12]; Homo sapiens, DU-145, 48 h, read-out: DU-145 LC50, SRB assay, 48 hours exposure) was 11.4 nM. For the same compound, the “DU-145 TGI” value ([12]; SRB assay, 48 hours exposure) was 6.83E-10, the GI50 ([13]; Homo sapiens, SK-MEL-28, 48 h, SRB assay, 48 hours exposure, read-out: MEL-28 GI50) was 1.14 nM and the CC50 ([13]; Homo sapiens, SK-MEL-28, 48 h, read-out: MEL-28 LC50, SRB assay, 48 hours exposure) was 9.11 nM. The “MEL-28 TGI” value ([13]; SRB assay, 48 hours exposure) was 3.42E-09 and the “Toxicity Data Kidney” value [14] was 3.34E-09.

Source: patent US7759345B2, “Antitumoral derivatives of ET-743” (priority 2001, dated 2010)
